The record followed here is US20060008858A1, “Osteoblast factor(s) that regulates human prostate cancer migration to and invasion of bone” (The Regents of the University of Michigan, priority 2004, published 2006).

The experiment concerns LNCaP-C4-2B and VCaP human CaP cells. Nature of the experiment: Chemotaxtic migration assay (cell culture inserts). The conditions noted are these: osteoblast-secreted proteins evaluated in migration assays; FIG. 2. The experiment is classed as cell-based. The procedure: Conditioned medium from human primary pre-osteoblast cells was prepared by plating 5×10^5 cells in 10 ml culture medium (10% FBS DMEM medium) to 100 mm tissue culture dishes. Following 24 hrs to allow for adherence, the medium was removed and the cells washed three times with 10 ml/dish PBS. Washed cells were then incubated 72 hrs in 10 ml/dish serum-free DMEM medium supplemented with 1% (v/v) ITS+(Becton Dickenson, Bedford. Mass.) Medium collected after 72 hrs was filtered through 0.2 μm filter and used directly in in vitro invasion and migration assays with human prostate cancer cells.
Chemotaxtic migration assays were performed as described with modifications (Jeffers et al., 1996). Briefly, cells were harvested with trypsin, washed once with serum-free medium, and resuspended in serum-free DMEM medium to a concentration of 5×10^4 viable cells/ml. 25,000 cells/0.5 ml were then added to 24-well cell culture inserts with a […] pore size (Becton Dickinson, Bedford, Mass.). The inserts were placed in wells containing 0.5 ml of serum-free DMEM, 72 hr serum-free conditioned medium from human primary osteoblasts and incubated for 48 hrs in 5% CO2-95% air at 37° C. […] The total number of invading cells/filter was quantified under 10× magnification. […]

For the substance “basic Fibroblast Growth Factor: osteoblast-secreted protein, basic fibroblast growth factor”, the “effect on CaP cell migration” value is on record as “stimulatory”.

In the case of “IL-6: osteoblast-secreted protein, interleukin 6”, the “effect on CaP cell migration” value is recorded as “stimulatory”.
